System: mice
Test: acetic acid-induced abdominal constriction assay for visceral pain in mice
Format: in vivo
Settings: for number of averaged abdominal constrictions during the observation time interval compared to saline control: 50 mg/kg i.p. in physiological saline, 10 minutes prior to i.p. 0.9% acetic acid, 10 minutes of observation starting 5 minutes after acetic acid, statistical difference versus saline control group; for pharmacological effect over saline vehicle control in reducing the abdominal constrictions induced by 0.9% acetic acid: similar studies, dose dependence
Source text: The method employed is a modification of the abdominal constriction test described by Collier, et. al (Collier, et al., Br. J. Pharmacol. Chemother. 32: 295-310 (1968)). For the rest of the example, compound: 6-(phenylureido)purine-2′, 3′-(4-ethylcyclohexylspiroketyl)-5′-nicotinyl-ribofuranoside is named “Compound A” and {6-[6-(Cyclohexylmethyl-amino)-purin-9-yl]-2-isobutyl-tetrahydro-furo[3,4-d][1,3]dioxol-4-yl}-methanol is named “Compound B”.
Briefly, a group of eight mice is designated as the control group, and each of said mice in the group receives an intraperitoneal (i.p.) injection of physiological saline in a dose-volume: mouse-weight ratio of 5 mL/kg ten minutes prior to an i.p. injection of 0.9% acetic acid in physiological saline in a dose-volume: mouse-weight ratio of 10 mL/kg. Each of said mice in the control group is placed in its own observation chamber shortly after the acetic acid injection and is allowed to explore. Each testing period starts 5 minutes after the acetic acid injection into a mouse, and consists of 10 minutes of observation during which time the number of abdominal constrictions of the mouse are counted. Abdominal constriction is defined as a lengthwise stretching of the torso with concave arching of the back. An average number of total constrictions per mouse per observation time is calculated from mice in the control group, and this indicates a baseline level of pain response in the control group animals.
Compound A is administered i.p., at a dose of 50 mg/kg suspended in a volume of physiological saline (5 mL/kg), 10 minutes prior to the administration of acetic acid, as described for the control group above.
Compound B is administered i.p., at a dose of 50 mg/kg suspended in a volume of physiological saline (5 mL/kg), 10 minutes prior to the administration of acetic acid, as described for the control group above.

| Molecule | number of averaged abdominal constrictions during the observation time interval compared to saline control | pharmacological effect over saline vehicle control in reducing the abdominal constrictions induced by 0.9% acetic acid |
| --- | --- | --- |
| 6-(phenylureido)purine-2′, 3′-(4-ethylcyclohexylspiroketyl)-5′-nicotinyl-ribofuranoside [Compound A] | lower | dose dependent pharmacological effect |
| CC(C)CC1OC2C(CO)OC(n3cnc4c(NCC5CCCCC5)ncnc43)C2O1 (stereo not shown) [Compound B, {6-[6-(Cyclohexylmethyl-amino)-purin-9-yl]-2-isobutyl-tetrahydro-furo[3,4-d][1,3]dioxol-4-yl}-methanol] | lower | dose dependent pharmacological effect |

Reference: US7749980B2, “Non-nucleotide compositions and method for treating pain” (Inspire Pharmaceuticals, Inc., priority 2003, dated 2010)
